Test results reported in ChEMBL document CHEMBL5291721, “A preclinical secondary pharmacology resource illuminates target-adverse drug reaction associations of marketed drugs” (Nat Commun, 2023).

How the values were obtained:
B2 bradykinin receptor = molecular target: T1, B2 bradykinin receptor (Homo sapiens, UniProt P30411)
T1 sequence (P30411 whole entry): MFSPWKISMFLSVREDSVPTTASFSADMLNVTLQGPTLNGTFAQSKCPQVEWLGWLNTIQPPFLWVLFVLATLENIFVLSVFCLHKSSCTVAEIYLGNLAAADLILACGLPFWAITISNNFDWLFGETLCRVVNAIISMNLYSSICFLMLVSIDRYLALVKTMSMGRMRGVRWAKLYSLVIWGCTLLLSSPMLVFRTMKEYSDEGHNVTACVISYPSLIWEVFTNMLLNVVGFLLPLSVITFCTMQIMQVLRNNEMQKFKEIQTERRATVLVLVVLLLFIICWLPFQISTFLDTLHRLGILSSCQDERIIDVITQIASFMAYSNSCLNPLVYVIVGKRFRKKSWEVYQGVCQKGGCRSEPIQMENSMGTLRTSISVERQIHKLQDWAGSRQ

[1] = molecular target: T2, Prostaglandin G/H synthase 1 (Rattus norvegicus, UniProt Q63921); format: functional
T2 sequence (Q63921 whole entry): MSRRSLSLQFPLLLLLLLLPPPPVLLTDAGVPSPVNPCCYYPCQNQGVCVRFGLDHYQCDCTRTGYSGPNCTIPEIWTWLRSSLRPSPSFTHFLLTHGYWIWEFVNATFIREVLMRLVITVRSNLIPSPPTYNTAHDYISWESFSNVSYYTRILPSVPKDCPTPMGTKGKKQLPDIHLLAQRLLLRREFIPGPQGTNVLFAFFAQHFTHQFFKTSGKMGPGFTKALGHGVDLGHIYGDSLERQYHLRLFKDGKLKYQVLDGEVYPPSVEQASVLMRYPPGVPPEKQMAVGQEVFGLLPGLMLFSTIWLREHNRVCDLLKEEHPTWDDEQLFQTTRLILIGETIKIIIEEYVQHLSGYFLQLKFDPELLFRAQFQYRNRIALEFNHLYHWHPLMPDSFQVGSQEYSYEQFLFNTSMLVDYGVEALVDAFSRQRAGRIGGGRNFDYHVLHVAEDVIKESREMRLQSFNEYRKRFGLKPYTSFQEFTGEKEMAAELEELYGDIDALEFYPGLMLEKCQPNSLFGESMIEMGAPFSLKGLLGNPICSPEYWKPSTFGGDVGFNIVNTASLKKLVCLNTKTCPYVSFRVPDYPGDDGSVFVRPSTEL

[2] = molecular target: 5-hydroxytryptamine receptor 2A (Homo sapiens, UniProt P28223); format: functional, cell-based
Chain of 5-hydroxytryptamine receptor 2A (P28223 whole entry): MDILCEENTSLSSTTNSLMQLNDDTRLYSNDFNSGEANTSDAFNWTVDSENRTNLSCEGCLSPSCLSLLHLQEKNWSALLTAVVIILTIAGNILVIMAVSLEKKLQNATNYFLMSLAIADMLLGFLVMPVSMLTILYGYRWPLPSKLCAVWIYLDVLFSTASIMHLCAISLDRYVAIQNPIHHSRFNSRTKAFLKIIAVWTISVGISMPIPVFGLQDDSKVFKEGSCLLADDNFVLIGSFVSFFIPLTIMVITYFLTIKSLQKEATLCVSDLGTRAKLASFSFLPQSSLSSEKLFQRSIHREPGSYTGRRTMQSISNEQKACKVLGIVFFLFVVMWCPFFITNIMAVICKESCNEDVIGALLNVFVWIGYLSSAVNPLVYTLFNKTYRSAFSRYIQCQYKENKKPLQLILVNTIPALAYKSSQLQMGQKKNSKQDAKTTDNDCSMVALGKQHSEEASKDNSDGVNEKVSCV

Thromboxane A2 receptor = molecular target: T3, Thromboxane A2 receptor (Homo sapiens, UniProt P21731)
T3 sequence (P21731 whole entry): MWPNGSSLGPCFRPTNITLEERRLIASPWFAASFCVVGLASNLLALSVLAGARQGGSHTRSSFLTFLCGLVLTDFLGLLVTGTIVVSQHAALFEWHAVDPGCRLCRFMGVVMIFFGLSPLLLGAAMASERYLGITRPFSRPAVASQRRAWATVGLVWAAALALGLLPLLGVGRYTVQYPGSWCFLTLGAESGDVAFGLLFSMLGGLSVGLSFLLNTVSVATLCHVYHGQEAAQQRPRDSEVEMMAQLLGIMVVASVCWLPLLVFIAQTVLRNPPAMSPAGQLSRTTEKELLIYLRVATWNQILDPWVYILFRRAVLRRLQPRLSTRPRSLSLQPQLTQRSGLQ

[3] = molecular target: Sodium-dependent dopamine transporter (Homo sapiens, UniProt Q01959)
Chain of Sodium-dependent dopamine transporter (Q01959 whole entry): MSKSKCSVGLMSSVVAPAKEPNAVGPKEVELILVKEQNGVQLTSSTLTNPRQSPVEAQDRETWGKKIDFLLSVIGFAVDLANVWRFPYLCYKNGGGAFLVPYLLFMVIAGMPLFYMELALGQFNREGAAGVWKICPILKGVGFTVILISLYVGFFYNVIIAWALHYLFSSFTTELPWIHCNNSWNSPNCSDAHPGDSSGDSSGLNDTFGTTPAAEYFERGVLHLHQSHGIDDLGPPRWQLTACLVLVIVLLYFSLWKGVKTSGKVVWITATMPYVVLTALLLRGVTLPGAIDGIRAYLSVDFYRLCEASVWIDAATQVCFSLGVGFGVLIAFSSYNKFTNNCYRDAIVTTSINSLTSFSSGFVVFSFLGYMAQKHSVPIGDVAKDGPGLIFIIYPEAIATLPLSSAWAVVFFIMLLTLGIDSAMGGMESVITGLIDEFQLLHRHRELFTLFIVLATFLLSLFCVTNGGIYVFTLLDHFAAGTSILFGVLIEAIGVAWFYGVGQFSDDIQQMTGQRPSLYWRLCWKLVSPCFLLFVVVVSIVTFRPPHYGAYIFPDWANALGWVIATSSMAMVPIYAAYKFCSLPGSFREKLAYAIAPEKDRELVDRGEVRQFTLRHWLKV

[4] = molecular target: T4, Alpha-2A adrenergic receptor (Homo sapiens, UniProt P08913); format: functional, cell-based
T4 sequence (P08913 whole entry): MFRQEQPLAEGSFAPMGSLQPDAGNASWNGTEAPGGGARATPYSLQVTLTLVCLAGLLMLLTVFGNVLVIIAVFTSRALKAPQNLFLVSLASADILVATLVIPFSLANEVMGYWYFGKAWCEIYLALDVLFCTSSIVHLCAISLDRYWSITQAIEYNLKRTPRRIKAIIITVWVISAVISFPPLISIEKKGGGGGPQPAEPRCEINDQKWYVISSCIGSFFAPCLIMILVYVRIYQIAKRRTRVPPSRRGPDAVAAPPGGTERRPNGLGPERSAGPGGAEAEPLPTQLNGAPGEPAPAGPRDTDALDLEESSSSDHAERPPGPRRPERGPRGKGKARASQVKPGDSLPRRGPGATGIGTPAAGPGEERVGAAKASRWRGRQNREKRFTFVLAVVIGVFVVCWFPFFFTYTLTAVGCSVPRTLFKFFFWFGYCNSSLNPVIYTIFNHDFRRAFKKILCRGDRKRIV

[5] = molecular target: T5, Neuropeptide Y receptor type 1 (Homo sapiens, UniProt P25929)
T5 sequence (P25929 whole entry): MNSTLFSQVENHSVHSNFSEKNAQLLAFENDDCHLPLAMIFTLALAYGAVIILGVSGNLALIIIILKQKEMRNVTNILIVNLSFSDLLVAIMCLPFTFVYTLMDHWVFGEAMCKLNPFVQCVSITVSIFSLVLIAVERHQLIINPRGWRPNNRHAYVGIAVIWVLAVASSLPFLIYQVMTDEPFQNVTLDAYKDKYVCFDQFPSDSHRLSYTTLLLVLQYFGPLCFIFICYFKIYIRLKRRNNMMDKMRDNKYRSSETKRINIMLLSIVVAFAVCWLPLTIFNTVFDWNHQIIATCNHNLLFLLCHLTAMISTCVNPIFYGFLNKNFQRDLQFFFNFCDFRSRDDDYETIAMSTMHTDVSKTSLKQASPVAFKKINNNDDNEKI

[6] = molecular target: T6, Equilibrative nucleoside transporter 1 (Homo sapiens, UniProt Q99808)
T6 sequence (Q99808 whole entry): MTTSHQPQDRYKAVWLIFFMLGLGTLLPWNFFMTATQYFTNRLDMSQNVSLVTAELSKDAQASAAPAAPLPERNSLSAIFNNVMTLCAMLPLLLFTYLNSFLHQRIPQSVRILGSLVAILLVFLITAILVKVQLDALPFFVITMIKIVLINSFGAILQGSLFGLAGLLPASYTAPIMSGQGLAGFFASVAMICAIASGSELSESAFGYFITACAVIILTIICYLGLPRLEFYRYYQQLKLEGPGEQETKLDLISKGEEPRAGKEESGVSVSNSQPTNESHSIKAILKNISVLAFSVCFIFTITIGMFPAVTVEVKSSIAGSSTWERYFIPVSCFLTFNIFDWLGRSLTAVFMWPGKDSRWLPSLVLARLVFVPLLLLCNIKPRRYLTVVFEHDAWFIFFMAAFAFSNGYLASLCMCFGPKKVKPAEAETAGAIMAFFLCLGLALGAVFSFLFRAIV

[7] = molecular target: Muscarinic acetylcholine receptor M3 (Homo sapiens, UniProt P20309)
Chain of Muscarinic acetylcholine receptor M3 (P20309 whole entry): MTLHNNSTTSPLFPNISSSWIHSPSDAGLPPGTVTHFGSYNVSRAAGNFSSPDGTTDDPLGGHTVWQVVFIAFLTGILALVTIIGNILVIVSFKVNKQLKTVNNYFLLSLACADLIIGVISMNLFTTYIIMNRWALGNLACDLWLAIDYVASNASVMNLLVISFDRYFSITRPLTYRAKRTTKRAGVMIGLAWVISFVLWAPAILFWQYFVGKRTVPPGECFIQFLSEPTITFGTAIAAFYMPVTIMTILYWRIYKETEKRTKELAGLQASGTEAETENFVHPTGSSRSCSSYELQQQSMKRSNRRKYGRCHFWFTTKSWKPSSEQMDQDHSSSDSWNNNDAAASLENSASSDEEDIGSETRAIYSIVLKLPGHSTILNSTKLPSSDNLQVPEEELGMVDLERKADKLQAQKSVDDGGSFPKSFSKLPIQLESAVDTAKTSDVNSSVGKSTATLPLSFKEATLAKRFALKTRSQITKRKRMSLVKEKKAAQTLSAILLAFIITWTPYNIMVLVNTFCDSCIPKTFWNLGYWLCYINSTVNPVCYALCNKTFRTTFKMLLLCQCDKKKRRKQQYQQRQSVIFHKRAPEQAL

Cannabinoid receptor 1 = Cannabinoid receptor 1 (Homo sapiens, UniProt P21554); format: functional, cell-based
Chain of Cannabinoid receptor 1 (P21554 whole entry): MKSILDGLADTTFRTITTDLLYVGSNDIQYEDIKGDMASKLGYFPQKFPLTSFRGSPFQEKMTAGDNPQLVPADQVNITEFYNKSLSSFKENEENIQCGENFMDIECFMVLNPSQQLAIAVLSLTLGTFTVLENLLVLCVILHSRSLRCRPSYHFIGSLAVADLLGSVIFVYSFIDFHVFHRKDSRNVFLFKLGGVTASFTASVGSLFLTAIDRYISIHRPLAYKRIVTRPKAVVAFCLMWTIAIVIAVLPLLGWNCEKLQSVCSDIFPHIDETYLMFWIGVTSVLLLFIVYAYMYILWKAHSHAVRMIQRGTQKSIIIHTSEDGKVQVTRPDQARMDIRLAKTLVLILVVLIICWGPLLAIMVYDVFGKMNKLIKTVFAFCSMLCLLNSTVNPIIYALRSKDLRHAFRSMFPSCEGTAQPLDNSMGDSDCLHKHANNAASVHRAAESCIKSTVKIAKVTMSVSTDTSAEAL
Note: assay procedure not described here.

Row | Compound | AC50 (B2 bradykinin receptor) [µM] | AC50 [1] [µM] | AC50 [2] [µM] | AC50 (Thromboxane A2 receptor) [µM] | AC50 [3] [µM] | AC50 [4] [µM] | AC50 [5] [µM] | AC50 [6] [µM] | AC50 [7] [µM] | AC50 (Cannabinoid receptor 1) [µM]
1 | N#Cc1ccccc1-c1cc(-c2ccccn2)cn(-c2ccccc2)c1=O | > 30 | > 30 | > 30 | > 30 | > 30 | > 30 | > 30 | > 30 | > 30 | > 30
2 | N=C(N)NCCCCCCC(=O)NC(O)C(=O)NCCCCNCCCN (stereo not given) | > 30 | > 30 | > 30 | > 30 | > 30 | > 30 | > 30 | > 30 | > 30 | > 30
3 | C=C[C@@]1(C)CC(=O)[C@]2(O)[C@@]3(C)[C@@H](O)CCC(C)(C)[C@@H]3[C@H](OC(=O)CCN(C)C)[C@H](OC(C)=O)[C@@]2(C)O1 | > 30 | > 30 | > 30 | > 30 | > 30 | > 30 | > 30 | > 30 | > 30 | > 30
4 | CC(=O)OCC(=O)[C@@]1(O)CC[C@H]2[C@@H]3CCC4=CC(=O)CC[C@]4(C)C3=CC[C@@]21C [ANECORTAVE ACETATE] | > 10 | > 10 | > 10 | > 10 | > 10 | > 10 | > 10 | > 10 | > 30 | > 30
5 | O=C(CCCN1CCC(n2c(O)nc3ccccc32)CC1)c1ccc(F)cc1 [BENPERIDOL] | > 30 | > 30 | 0.12 | > 30 | 11 | 19.2 | > 30 | > 30 | 12 | > 30
6 | CCN(CC)C(=O)C1CN2CCc3cc(OC)c(OC)cc3C2CC1OC(C)=O (stereo not given) [BENZQUINAMIDE] | > 30 | 2.72 | 1.57 | > 10 | > 30 | 0.735 | > 30 | > 30 | > 30 | > 30
7 | CCC(=O)OCC(=O)[C@@]1(OC(=O)CC)[C@@H](C)C[C@H]2[C@@H]3CCC4=CC(=O)C=C[C@]4(C)[C@@]3(F)[C@@H](O)C[C@@]21C [BETAMETHASONE DIPROPIONATE] | > 30 | > 10 | > 30 | > 30 | > 30 | > 30 | > 30 | > 30 | > 30 | > 30
8 | CCOC(=O)NNc1ccc(N(CC)CC(C)O)nn1 (stereo not given) [CADRALAZINE] | > 30 | 0.5 | > 30 | > 30 | > 30 | > 30 | > 30 | > 30 | > 30 | > 30
9 | CCCC(C)(COC(N)=O)COC(=O)NC(C)C (stereo not given) [CARISOPRODOL] | > 30 | > 30 | > 30 | > 30 | > 10 | > 10 | > 30 | > 30 | > 10 | > 30
10 | CCC(C)(Oc1ccc(C2(c3ccc(OC(C)(CC)C(=O)O)cc3)CCCCC2)cc1)C(=O)O (stereo not given) [CLINOFIBRATE] | > 30 | > 30 | > 30 | > 30 | > 30 | > 30 | > 30 | > 30 | > 30 | > 30
11 | CCCCC[C@H](O)/C=C/[C@H]1[C@H](O)CC(=O)[C@@H]1C/C=C\CCCC(=O)O [DINOPROSTONE] | > 30 | 15 | > 30 | 3.5 | > 30 | > 30 | > 30 | > 30 | > 30 | > 30
12 | CC(C)c1cc2c(cc1S(=O)(=O)O)[C@@]1(C)CCC[C@@](C)(C(=O)O)[C@@H]1CC2 [ECABET] | > 30 | > 30 | > 30 | > 30 | > 30 | > 30 | > 30 | > 30 | > 30 | > 30
13 | CCCN(CC)C(CC)C(=O)Nc1c(C)cccc1C (stereo not given) [ETIDOCAINE] | > 30 | > 30 | > 30 | > 30 | > 30 | > 30 | > 30 | > 30 | > 30 | > 30
14 | O=C(O)c1ccccc1Nc1cccc(C(F)(F)F)c1 [FLUFENAMIC ACID] | > 30 | 18.3 | > 30 | > 30 | > 30 | > 30 | > 30 | > 30 | 0.92 | > 30
15 | CCCCCCOC(=O)CCC(=O)CN [HEXAMINOLEVULINATE] | > 30 | 9.4 | > 30 | > 30 | > 30 | > 30 | > 30 | > 30 | > 30 | > 30
16 | CC(C)OC(=O)C(C(=O)OC(C)C)=C1SC=CS1 [MALOTILATE] | > 30 | > 30 | > 30 | > 30 | > 30 | > 30 | > 30 | > 30 | > 30 | > 30
